{"source": "paper PMC10663540", "about": "“Structure-based discovery of dual pathway inhibitors for SARS-CoV-2 entry” (Nature Communications, 2023)", "key": {"TMPRSS2": {"target": "TMPRSS2 (Homo sapiens, UniProt O15393)", "sequence (O15393 256-492)": "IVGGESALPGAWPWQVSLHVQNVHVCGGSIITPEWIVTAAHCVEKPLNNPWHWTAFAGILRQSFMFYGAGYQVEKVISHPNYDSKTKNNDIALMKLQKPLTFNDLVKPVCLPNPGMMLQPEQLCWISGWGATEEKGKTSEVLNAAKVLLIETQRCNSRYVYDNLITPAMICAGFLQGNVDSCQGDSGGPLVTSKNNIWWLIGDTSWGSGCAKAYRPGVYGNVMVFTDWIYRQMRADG", "sequence (O15393 other isoform, or with tags, fused parts or gaps)": "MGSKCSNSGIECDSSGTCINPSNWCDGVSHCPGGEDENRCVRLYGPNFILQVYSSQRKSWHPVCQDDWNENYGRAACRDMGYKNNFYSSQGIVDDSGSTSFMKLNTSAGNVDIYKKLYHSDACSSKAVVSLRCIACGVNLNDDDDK", "experiment": "biochemical", "format": "biochemical"}, "human CTSL": {"target": "T1, human CTSL (Homo sapiens, UniProt P07711)", "T1 construct": "made in house", "T1 sequence (P07711 114-333)": "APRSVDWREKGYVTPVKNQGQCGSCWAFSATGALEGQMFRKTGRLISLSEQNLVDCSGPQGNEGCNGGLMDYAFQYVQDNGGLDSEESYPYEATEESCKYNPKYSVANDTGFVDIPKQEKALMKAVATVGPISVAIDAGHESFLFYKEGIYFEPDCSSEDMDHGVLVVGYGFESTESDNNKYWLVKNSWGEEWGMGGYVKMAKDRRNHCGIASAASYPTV", "experiment": "FRET enzymatic inhibition assay of CTSL (IC50 measurement)", "format": "biochemical", "conditions": "Fig. 5c"}}, "note": "Several values for one entry are separate records, joined by “and”; a condition that tells them apart may be missing. Equal values may be shown once.", "data": [{"smiles": "NC(N)=Nc1ccc(C(=O)OCCN2CCN(C(=O)N[C@@H](Cc3ccccc3)C(=O)N[C@H](/C=C/S(=O)(=O)c3ccccc3)CCc3ccccc3)CC2)cc1", "note": "[212-148]", "values": [{"measurement": "IC50", "setting": "TMPRSS2; 0.5 nM TMPRSS2, 10 μM substrate, mean ± SD, four replicates", "value": 1.38, "unit": "µM"}, {"measurement": "Inhibition: TMPRSS2", "setting": "TMPRSS2; 212-148 15.2588 nM, Fig. 5b", "value": "5.04% and 4.06% and 3.14%"}, {"measurement": "inhibition at 0.0152588 µM", "setting": "TMPRSS2; 212-148 15.2588 nM, Fig. 5b", "value": 3.01, "unit": "%"}, {"measurement": "Inhibition: TMPRSS2", "setting": "TMPRSS2; 212-148 30.5176 nM, Fig. 5b", "value": "3.05% and 3.16% and 4.84%"}, {"measurement": "inhibition at 0.0305176 µM", "setting": "TMPRSS2; 212-148 30.5176 nM, Fig. 5b", "value": 4.19, "unit": "%"}, {"measurement": "Inhibition: TMPRSS2", "setting": "TMPRSS2; 212-148 61.0352 nM, Fig. 5b", "value": "6.85% and 6.15% and 3.83%"}, {"measurement": "inhibition at 0.0610352 µM", "setting": "TMPRSS2; 212-148 61.0352 nM, Fig. 5b", "value": 6.56, "unit": "%"}, {"measurement": "Inhibition: TMPRSS2", "setting": "TMPRSS2; 212-148 122.07 nM, Fig. 5b", "value": "7.87% and 8.22% and 8.32%"}, {"measurement": "inhibition at 0.12207 µM", "setting": "TMPRSS2; 212-148 122.07 nM, Fig. 5b", "value": 8.2, "unit": "%"}, {"measurement": "Inhibition: TMPRSS2", "setting": "TMPRSS2; 212-148 244.141 nM, Fig. 5b", "value": "13.88% and 12.56% and 13.21%"}, {"measurement": "inhibition at 0.244141 µM", "setting": "TMPRSS2; 212-148 244.141 nM, Fig. 5b", "value": 13.6, "unit": "%"}, {"measurement": "Inhibition: TMPRSS2", "setting": "TMPRSS2; 212-148 488.281 nM, Fig. 5b", "value": "22.52% and 22.28% and 23.91%"}, {"measurement": "inhibition at 0.488281 µM", "setting": "TMPRSS2; 212-148 488.281 nM, Fig. 5b", "value": 23.3, "unit": "%"}, {"measurement": "Inhibition: TMPRSS2", "setting": "TMPRSS2; 212-148 976.562 nM, Fig. 5b", "value": "40.08% and 39.01% and 40.36%"}, {"measurement": "inhibition at 0.976562 µM", "setting": "TMPRSS2; 212-148 976.562 nM, Fig. 5b", "value": 39.7, "unit": "%"}, {"measurement": "Inhibition: TMPRSS2", "setting": "TMPRSS2; 212-148 1953.12 nM, Fig. 5b", "value": "63.03% and 61.74% and 62.43%"}, {"measurement": "inhibition at 1.95312 µM", "setting": "TMPRSS2; 212-148 1953.12 nM, Fig. 5b", "value": 61.1, "unit": "%"}, {"measurement": "Inhibition: TMPRSS2", "setting": "TMPRSS2; 212-148 3906.25 nM, Fig. 5b", "value": "83.44% and 83.94% and 85.49%"}, {"measurement": "inhibition at 3.90625 µM", "setting": "TMPRSS2; 212-148 3906.25 nM, Fig. 5b", "value": 83.6, "unit": "%"}, {"measurement": "Inhibition: TMPRSS2", "setting": "TMPRSS2; 212-148 7812.5 nM, Fig. 5b", "value": "95.50% and 95.52% and 96.33%"}, {"measurement": "inhibition at 7.8125 µM", "setting": "TMPRSS2; 212-148 7812.5 nM, Fig. 5b", "value": 94.8, "unit": "%"}, {"measurement": "Inhibition: TMPRSS2", "setting": "TMPRSS2; 212-148 15625 nM, Fig. 5b", "value": "98.35% and 96.17% and 99.57%"}, {"measurement": "inhibition at 15.625 µM", "setting": "TMPRSS2; 212-148 15625 nM, Fig. 5b", "value": 97.8, "unit": "%"}, {"measurement": "Inhibition: TMPRSS2", "setting": "TMPRSS2; 212-148 31250 nM, Fig. 5b", "value": "98.24% and 98.70% and 100.24%"}, {"measurement": "inhibition at 31.25 µM", "setting": "TMPRSS2; 212-148 31250 nM, Fig. 5b", "value": 97.8, "unit": "%"}, {"measurement": "Inhibition: TMPRSS2", "setting": "TMPRSS2; 212-148 62500 nM, Fig. 5b", "value": "98.19% and 99.09% and 100.93%"}, {"measurement": "inhibition at 62.5 µM", "setting": "TMPRSS2; 212-148 62500 nM, Fig. 5b", "value": 98, "unit": "%"}, {"measurement": "Inhibition: TMPRSS2", "setting": "TMPRSS2; 212-148 125000 nM, Fig. 5b", "value": "98.93% and 99.03% and 99.02%"}, {"measurement": "inhibition at 125 µM", "setting": "TMPRSS2; 212-148 125000 nM, Fig. 5b", "value": 98.3, "unit": "%"}, {"measurement": "Inhibition: TMPRSS2", "setting": "TMPRSS2; 212-148 250000 nM, Fig. 5b", "value": "99.15% and 99.14% and 99.60%"}, {"measurement": "inhibition at 250 µM", "setting": "TMPRSS2; 212-148 250000 nM, Fig. 5b", "value": 98.1, "unit": "%"}, {"measurement": "Inhibition: TMPRSS2", "setting": "TMPRSS2; 212-148 500000 nM, Fig. 5b", "value": "100.68% and 99.05% and 100.75%"}, {"measurement": "inhibition at 500 µM", "setting": "TMPRSS2; 212-148 500000 nM, Fig. 5b", "value": 100, "unit": "%"}, {"measurement": "Inhibition: TMPRSS2", "setting": "TMPRSS2; 212-148 1000000 nM, Fig. 5b", "value": "100.30% and 98.80% and 100.85%"}, {"measurement": "inhibition at 1000 µM", "setting": "TMPRSS2; 212-148 1000000 nM, Fig. 5b", "value": 99.8, "unit": "%"}, {"measurement": "Inhibition: TMPRSS2", "setting": "TMPRSS2; 212-148 2000000 nM, Fig. 5b", "value": "100.85% and 100.05% and 100.27%"}, {"measurement": "inhibition at 2000 µM", "setting": "TMPRSS2; 212-148 2000000 nM, Fig. 5b", "value": 99, "unit": "%"}, {"measurement": "Inhibition: CTSL", "setting": "human CTSL; 212-148 0.0152588 nM", "value": "2.91% and -0.21% and -1.28% and 1.99%"}, {"measurement": "Inhibition: CTSL", "setting": "human CTSL; 212-148 0.0305176 nM", "value": "3.33% and -0.12% and 1.43% and -2.77%"}, {"measurement": "Inhibition: CTSL", "setting": "human CTSL; 212-148 0.0610352 nM", "value": "-0.57% and 0.90% and 3.39% and -2.15%"}, {"measurement": "Inhibition: CTSL", "setting": "human CTSL; 212-148 0.12207 nM", "value": "9.01% and 2.36% and 0.90% and 3.32%"}, {"measurement": "Inhibition: CTSL", "setting": "human CTSL; 212-148 0.244141 nM", "value": "8.36% and 6.61% and 10.35%"}, {"measurement": "inhibition at 0.000244141 µM", "setting": "human CTSL; 212-148 0.244141 nM", "value": 6.2, "unit": "%"}, {"measurement": "Inhibition: CTSL", "setting": "human CTSL; 212-148 0.488281 nM", "value": "11.98% and 10.08% and 8.64%"}, {"measurement": "inhibition at 0.000488281 µM", "setting": "human CTSL; 212-148 0.488281 nM", "value": 11.8, "unit": "%"}, {"measurement": "Inhibition: CTSL", "setting": "human CTSL; 212-148 0.976562 nM", "value": "27.34% and 25.99% and 25.66%"}, {"measurement": "inhibition at 0.000976562 µM", "setting": "human CTSL; 212-148 0.976562 nM", "value": 23.1, "unit": "%"}, {"measurement": "Inhibition: CTSL", "setting": "human CTSL; 212-148 1.95312 nM", "value": "44.61% and 46.51% and 45.72%"}, {"measurement": "inhibition at 0.00195312 µM", "setting": "human CTSL; 212-148 1.95312 nM", "value": 48, "unit": "%"}, {"measurement": "Inhibition: CTSL", "setting": "human CTSL; 212-148 3.90625 nM", "value": "71.05% and 70.57% and 71.92%"}, {"measurement": "inhibition at 0.00390625 µM", "setting": "human CTSL; 212-148 3.90625 nM", "value": 73.5, "unit": "%"}, {"measurement": "Inhibition: CTSL", "setting": "human CTSL; 212-148 7.8125 nM", "value": "92.07% and 92.09% and 91.52%"}, {"measurement": "inhibition at 0.0078125 µM", "setting": "human CTSL; 212-148 7.8125 nM", "value": 91.9, "unit": "%"}, {"measurement": "Inhibition: CTSL", "setting": "human CTSL; 212-148 15.625 nM", "value": "98.41% and 99.33% and 98.88%"}, {"measurement": "inhibition at 0.015625 µM", "setting": "human CTSL; 212-148 15.625 nM", "value": 98.4, "unit": "%"}, {"measurement": "Inhibition: CTSL", "setting": "human CTSL; 212-148 31.25 nM", "value": "100.04% and 99.69% and 99.78%"}, {"measurement": "inhibition at 0.03125 µM", "setting": "human CTSL; 212-148 31.25 nM", "value": 99.8, "unit": "%"}, {"measurement": "Inhibition: CTSL", "setting": "human CTSL; 212-148 62.5 nM", "value": "100.21% and 99.82% and 99.78%"}, {"measurement": "inhibition at 0.0625 µM", "setting": "human CTSL; 212-148 62.5 nM", "value": 100, "unit": "%"}, {"measurement": "Inhibition: CTSL", "setting": "human CTSL; 212-148 125 nM", "value": "100.33% and 100.36% and 100.30%"}, {"measurement": "inhibition at 0.125 µM", "setting": "human CTSL; 212-148 125 nM", "value": 100, "unit": "%"}, {"measurement": "Inhibition: CTSL", "setting": "human CTSL; 212-148 250 nM", "value": "99.87% and 99.66% and 100.24%"}, {"measurement": "inhibition at 0.25 µM", "setting": "human CTSL; 212-148 250 nM", "value": 100, "unit": "%"}, {"measurement": "Inhibition: CTSL", "setting": "human CTSL; 212-148 500 nM", "value": "100.03% and 100.68% and 99.61%"}, {"measurement": "inhibition at 0.5 µM", "setting": "human CTSL; 212-148 500 nM", "value": 99.9, "unit": "%"}, {"measurement": "Inhibition: CTSL", "setting": "human CTSL; 212-148 1000 nM", "value": "100.34% and 99.76% and 100.32%"}, {"measurement": "inhibition at 1 µM", "setting": "human CTSL; 212-148 1000 nM", "value": 99.5, "unit": "%"}, {"measurement": "Inhibition: CTSL", "setting": "human CTSL; 212-148 2000 nM", "value": "100.56% and 99.97%"}, {"measurement": "inhibition at 2 µM", "setting": "human CTSL; 212-148 2000 nM", "value": 99, "unit": "%"}]}]}
